According to the Deep4Chem optical property database:
One block for each compound: values may come before it.

Assay: solvent given as SMILES

Structure (SMILES): CCCCCCCCn1nnc(-c2ccc(C#Cc3ccc(C#Cc4ccc(-c5nnn(CCCCCCCC)n5)cc4)c4nc5c6ccccc6c6ccccc6c5nc34)cc2)n1
emission maximum (in C1CCOC1): 495 nm
emission maximum (in Cc1ccccc1): 488 nm
emission maximum (in ClCCl): 502 nm

Structure (SMILES): CC(C)(C)c1ccc(-c2nc3c4ccccc4c4ccccc4c3n2-c2ccc(C(C)(C)C)cc2)cc1
emission maximum (in C1CCOC1): 390 nm
emission maximum (in C1COCCO1): 389 nm
emission maximum (in CC#N): 389 nm
emission maximum (in CCCCCC): 385 nm
emission maximum (in CCCCOCCCC): 389 nm
emission maximum (in CCN(CC)CC): 388 nm
emission maximum (in CCOC(C)=O): 390 nm
emission maximum (in CCOCC): 388 nm
emission maximum (in CN(C)C=O): 391 nm
emission maximum (in Cc1ccccc1): 390 nm
emission maximum (in ClC=C(Cl)Cl): 392 nm
emission maximum (in ClCCl): 392 nm

Structure (SMILES): CCOC(=O)/C(C#N)=C\c1cn(-c2ccccc2)nc1-c1ccccc1
emission maximum (in C1CCOC1): 429 nm
emission maximum (in C1COCCO1): 408 nm
emission maximum (in CCO): 423 nm
emission maximum (in CCOC(C)=O): 427 nm
emission maximum (in CN(C)C=O): 434 nm
emission maximum (in CO): 434 nm
emission maximum (in CS(C)=O): 440 nm
emission maximum (in Cc1ccccc1): 407 nm
emission maximum (in ClC(Cl)Cl): 431 nm
emission maximum (in ClCCl): 428 nm

Structure (SMILES): CCOC(=O)c1sc(SC)c2c(=O)n(C)nnc12
emission maximum (in C1CCOC1): 470 nm
emission maximum (in CC#N): 484 nm
emission maximum (in CCO): 501 nm
emission maximum (in CN(C)C=O): 487 nm
emission maximum (in CO): 508 nm
emission maximum (in CS(C)=O): 501 nm

Structure (SMILES): CN(C)c1ccc(/C=C/c2nc3c4ccccc4c4ccccc4c3[nH]2)cc1
emission maximum (in C1CCOC1): 463 nm
emission maximum (in C1COCCO1): 436 nm
emission maximum (in CC1CCCCC1): 430 nm
emission maximum (in CC#N): 476 nm
emission maximum (in CCOC(C)=O): 460 nm
emission maximum (in CCOCC): 448 nm
emission maximum (in CN(C)C=O): 478 nm
emission maximum (in COC(C)=O): 471 nm
emission maximum (in CS(C)=O): 480 nm
emission maximum (in Cc1ccccc1): 436 nm
emission maximum (in ClC(Cl)Cl): 467 nm

Structure (SMILES): Cc1ccc(N2C(c3ccccc3[NH-])=[NH+]C(c3ccccc3)C2c2ccccc2)cc1 (centres undefined)
emission maximum (in Cc1ccccc1): 572 nm

Structure (SMILES): CC1(C)Nc2cc3nc4cc(F)c(F)cc4nc3cc2N1
emission maximum (in CCO): 496 nm

Structure (SMILES): CN(C)c1ccc(C2=[N+]3C(=Nc4c(-c5ccc(O)cc5)cc(-c5ccc(N(C)C)cc5)n4[B-]3(F)F)C(c3ccc(O)cc3)=C2)cc1
emission maximum (in C1CCOC1): 815 nm
emission maximum (in CS(C)=O): 832 nm
emission maximum (in Cc1ccccc1): 813 nm

Structure (SMILES): COc1ccc2c(c1)c1cc(OC)ccc1n2-c1cccc(-n2c3ccc(OC)cc3c3cc(OC)ccc32)c1C#N
emission maximum (in Cc1ccccc1): 460 nm
emission maximum (in O=P(c1ccccc1)(c1ccccc1)c1ccccc1Oc1ccccc1P(=O)(c1ccccc1)c1ccccc1): 462 nm

Structure (SMILES): CN(C)c1ccc(C(=O)Nc2ccc(Cl)cc2)cc1
emission maximum (in C1CCCCC1): 435 nm
emission maximum (in C1CCOC1): 490 nm
emission maximum (in CC#N): 498 nm
emission maximum (in CCOCC): 481 nm

Structure (SMILES): CN(C)c1ccc(C#Cc2ccccc2)cc1
emission maximum (in C1CCCCC1): 344.99 nm
emission maximum (in C1CCOC1): 386 nm
emission maximum (in C1COCCO1): 372.49 nm
emission maximum (in CC1CCCO1): 377.5 nm
emission maximum (in CC#N): 415.51 nm
emission maximum (in CC(C)=O): 410.49 nm
emission maximum (in CC(C)CC(C)(C)C): 342.99 nm
emission maximum (in CC(C)O): 365 nm
emission maximum (in CCCCCCCCCCCCCCCC): 346.98 nm
emission maximum (in CCCCCCCCCCCCCCCCCl): 360.49 nm
emission maximum (in CCOC(C)=O): 382.5 nm
emission maximum (in CCOCC): 368.5 nm
emission maximum (in CN(C)C=O): 418.5 nm
emission maximum (in CO): 372 nm
emission maximum (in CS(C)=O): 423.5 nm
emission maximum (in Cc1ccccc1): 366.01 nm

Structure (SMILES): O=C1c2ccccc2C2=Cc3cccc[n+]3[B-](F)(F)N12
emission maximum (in CCO): 449 nm
emission maximum (in Cc1ccccc1): 459 nm
emission maximum (in ClCCl): 454 nm

Structure (SMILES): C(S/C=C/c1ccc(/C=C/SC=C2CCCC2)cc1)=C1CCCC1
emission maximum (in ClCCl): 424 nm

Structure (SMILES): CCCCCCCCN1c2ccc(C#Cc3cc(C(F)(F)F)cc(C(F)(F)F)c3)cc2Sc2cc(C=O)ccc21
emission maximum (in C1CCOC1): 514 nm
emission maximum (in CC#N): 532 nm
emission maximum (in CCCCCC): 491 nm
emission maximum (in CO): 517 nm
emission maximum (in CS(C)=O): 540 nm
emission maximum (in Cc1ccccc1): 508 nm
emission maximum (in ClC(Cl)Cl): 529 nm

Structure (SMILES): C(S/C=C/c1ccc(/C=C/SC=C2CCCCCC2)cc1)=C1CCCCCC1
emission maximum (in ClCCl): 422 nm

Structure (SMILES): CN1c2ccccc2C(O)(c2ccccc2)c2cc([N+](=O)[O-])ccc21 (centres undefined)
emission maximum (in C1CCOC1): 501.3 nm
emission maximum (in CC#N): 557 nm
emission maximum (in CCO): 536.2 nm
emission maximum (in CO): 544.7 nm
emission maximum (in CS(C)=O): 566.8 nm
emission maximum (in Cc1ccccc1): 480.7 nm

Structure (SMILES): COc1ccc(-n2nc(C(=O)N3CCCC3)c(N3CCCC3)n2)cc1
emission maximum (in CC#N): 412 nm
emission maximum (in CCCCCC): 405 nm
emission maximum (in CCO): 410 nm
emission maximum (in CN(C)C=O): 396 nm
emission maximum (in ClC(Cl)Cl): 411 nm

Structure (SMILES): F[B-]1(F)Oc2ccccc2-c2nc(-c3ccccc3)c3cc(Cl)ccc3[n+]21
emission maximum (in Cc1ccccc1): 542 nm

Structure (SMILES): CN(CCO)c1ccc(/C=C/C2=CC(=C(C#N)C#N)CC(C)(C)C2)cc1
emission maximum (in CC#N): 651 nm
emission maximum (in CC(C)=O): 648 nm
emission maximum (in CCCCO): 649 nm
emission maximum (in ClC(Cl)Cl): 612 nm
emission maximum (in ClCCl): 634 nm
emission maximum (in c1ccccc1): 588 nm

Structure (SMILES): COc1ccc(-n2nc(C#N)c(N3CCCC3)n2)cc1
emission maximum (in CC#N): 418 nm
emission maximum (in CCCCCC): 389 nm
emission maximum (in CCO): 415 nm
emission maximum (in CN(C)C=O): 418 nm
emission maximum (in CO): 416 nm
emission maximum (in ClC(Cl)Cl): 406 nm

Now from value to compound:

emission maximum (in C1CCOC1): 581 nm
Structure (SMILES): CC(C)(C)c1ccc(C2=C(c3ccc(N4c5ccccc5C(C)(C)c5ccccc54)cc3)S(=O)(=O)c3c2sc(-c2ccc(N4c5ccccc5C(C)(C)c5ccccc54)cc2)c3-c2ccc(C(C)(C)C)cc2)cc1

emission maximum (in C1CCCCC1): 386.34 nm
emission maximum (in C1CCOC1): 390.22 nm
emission maximum (in CC#N): 388.06 nm
emission maximum (in CCCCCC): 384.62 nm
emission maximum (in CCO): 386.99 nm
emission maximum (in CN(C)C=O): 392.15 nm
emission maximum (in CO): 386.56 nm
emission maximum (in ClC(Cl)Cl): 391.46 nm
emission maximum (in ClCCl): 391.08 nm
Structure (SMILES): COc1ccc(-c2cc3c4c(c2)CCc2cc(-c5ccc(OC)cc5)cc(c2-4)CC3)cc1

emission maximum (in ClC(Cl)Cl): 438 nm
emission maximum (in ClCCl): 441 nm
Structure (SMILES): F[B-]1(F)OC(c2ccccc2)=Cc2ccc3ccccc3[n+]21

emission maximum (in CS(C)=O): 572 nm
emission maximum (in ClCCl): 530 nm
Structure (SMILES): CCN(CC)c1ccc2c(c1)oc(=O)c1c(=O)oc3c(OC)cccc3c12

emission maximum (in ClCCl): 434 nm
Structure (SMILES): c1cncc(-c2ccc(-c3c4ccccc4c(-c4ccc(-c5cccnc5)cc4)c4cc(-c5cccnc5)ccc34)cc2)c1

emission maximum (in CCO): 665 nm
emission maximum (in CO): 661 nm
emission maximum (in CS(C)=O): 665 nm
emission maximum (in O): 659 nm
Structure (SMILES): CN1/C(=C/C=C(/C=C/c2sc3ccccc3[n+]2C)c2cccc(C(F)(F)F)c2)Sc2ccccc21

emission maximum (in ClCCl): 446 nm
Structure (SMILES): CCCCn1c(-c2ccc(-c3nnc(-c4ccccc4)o3)cc2)nc2c3ccccc3c3ccccc3c21

emission maximum (in CS(C)=O): 552 nm
emission maximum (in ClCCl): 509 nm
Structure (SMILES): CCNc1cc2oc(=O)c3c(=O)oc4ccccc4c3c2cc1C

emission maximum (in CCO): 520 nm
emission maximum (in ClCCl): 504 nm
Structure (SMILES): N#Cc1cnc(-c2c3ccccc3c(-c3ccccc3)c3ccccc23)nc1

emission maximum (in ClCCl): 444 nm
Structure (SMILES): O=C1c2ccccc2C2=Nc3ccc4ccccc4[n+]3[B-](F)(F)N12

emission maximum (in CC#N): 482 nm
emission maximum (in ClCCl): 474 nm
Structure (SMILES): COC(=O)c1cc(=O)n(C)c2cc(-c3ccc4c(c3)OCO4)sc12

emission maximum (in CCCCCCC): 603 nm
Structure (SMILES): c1ccc2c3c(ccc2c1)-c1c2ccccc2cc2cccc-3c12

emission maximum (in C1COCCO1): 518 nm
Structure (SMILES): O=C1OC(c2ccccc2)=C/C1=C\c1ccc([N+](=O)[O-])cc1

emission maximum (in ClC(Cl)Cl): 663 nm
Structure (SMILES): CCCCCCCCN1C(=O)c2ccc3c4c(-c5ccc6c(c5)c5ccccc5n6-c5ccccc5)cc5c6c(cc(-c7ccc8c(c7)c7ccccc7n8-c7ccccc7)c(c7ccc(c2c37)C1=O)c64)C(=O)N(CCCCCCCC)C5=O

emission maximum (in ClCCl): 529 nm
Structure (SMILES): O=c1oc2ccccc2c2c1c(=O)oc1cc(O)c3ccccc3c12

emission maximum (in ClCCl): 409 nm
Structure (SMILES): CCCCCCC1(CCCCCC)c2ccccc2-c2ccc(-c3ccc(-c4cc(-c5ccccn5)nc(-c5ccccn5)c4)cc3)cc21

emission maximum (in C1CCOC1): 599 nm
Structure (SMILES): Cc1ccc(C2=C3C=CC(Sc4ccccc4)=[N+]3[B-](F)(F)n3c(Sc4ccccc4)ccc32)cc1

emission maximum (in CC#N): 334 nm
emission maximum (in CCOC(C)=O): 330 nm
emission maximum (in CO): 338 nm
Structure (SMILES): COC(=O)C[C@H](Cc1c[nH]c2ccccc12)NC(=O)[C@H](CC(=O)N[C@@H](CC1=CCc2ccccc21)C(=O)OC)NC(=O)[C@H](Cc1c[nH]c2ccccc12)NC(=O)OC(C)(C)C

emission maximum (in CC#N): 510 nm
emission maximum (in ClCCl): 477 nm
Structure (SMILES): Cc1cc(O)c(C(=O)/C=C/c2ccccc2O)c(=O)o1

emission maximum (in CCCCCC): 682 nm
emission maximum (in ClCCl): 718 nm
Structure (SMILES): CC(C)[Si](C#Cc1c2cc3ccccc3cc2c(C#C[Si](C(C)C)(C(C)C)C(C)C)c2nc3cc4c(cc3nc12)C1c2ccccc2C4c2ccccc21)(C(C)C)C(C)C

emission maximum (in CS(C)=O): 530 nm
emission maximum (in OCC(O)CO): 690 nm
Structure (SMILES): C[n+]1ccnc(/C=C/c2ccc(N(c3ccccc3)c3ccc(/C=C/c4c[n+](C)ccn4)cc3)cc2)c1

emission maximum (in ClCCl): 463 nm
Structure (SMILES): C[Si]1(C)c2cc(-c3ccc(-c4cccs4)s3)ccc2C=Cc2ccc(-c3ccc(-c4cccs4)s3)cc21

emission maximum (in CO): 496 nm
Structure (SMILES): O=C(O)c1ccc(-c2cnc(-c3ccc(N(c4ccccc4)c4ccccc4)cc3)s2)cc1

emission maximum (in CC#N): 509 nm
Structure (SMILES): C[C@]12SC(=O)C=C1c1nc(-c3ccc(Cl)cc3)[nH]c1C1=CC(=O)S[C@@]12C

emission maximum (in ClCCl): 722 nm
Structure (SMILES): CC1=C(c2ccc(N(C)C)cc2)C(C)=[N+]2C1=C(c1c(-c3ccccn3)nc3ccccn13)c1c(C)c(-c3ccc(N(C)C)cc3)c(C)n1[B-]2(F)F

emission maximum (in O): 460 nm
Structure (SMILES): [NH3+]c1cc([NH3+])cc(-c2[nH+]c3ccccc3s2)c1

emission maximum (in ClCCl): 418 nm
Structure (SMILES): c1ccc(B2Nc3cc4c(cc3-c3sc5ccccc5c32)NB(c2ccccc2)c2c-4sc3ccccc23)cc1

emission maximum (in ClCCl): 572 nm
Structure (SMILES): COc1ccc(C2=C(c3ccc(OC)cc3)c3cccc4c3c(cc3nc5ccccc5nc34)O2)cc1
